Reference: US7026344B2, “Treating sickle cell disease” (priority 2000, dated 2006)
Several values for one entry are separate records, joined by “and”; a condition that tells them apart may be missing. Equal entries are not always repeated.

Key:
[1] = tested on: activated-PMN mediated SRBC retention/adherence in the isolated-perfused rat lung; test: SRBC retention/adherence in isolated-perfused lung with PMA-activated PMNs; details: for SRBC retention/adherence: mean±SE
Method: Isolated perfused lung. Male Sprague-Dawley rats (275–350 g) were anesthetized with Nembutal sodium (25 mg ip), and lungs were removed for extracorporeal perfusion. A tracheostomy was performed that permitted ventilation with a Harvard rodent ventilator (model 683) at 55 breaths/min with a tidal volume of 2.5 ml and 2.0 cmH2O positive end-expiratory pressure. The inspired gas mixture as 95% air-5% CO2 (room air gas). A median stemotomy was performed, heparin sodium (100 IU) was injected in the right ventricle, and caminulas were placed in the pulmonary artery and left ventricle. Heart, lungs, and mediastinal structures were removed en bloc and placed into a humidified chamber. Lungs were perfused by a Gilson Minipuls 2 peristaltic pump at a constant flow of 0.03 ml·g body wt^−1·min^−1. Lungs were perfused with a physiological salt solution (PSS) containing bovine serum albumin (BSA, 66,000 mol.wt). The PSS-BSA perfusate contained (in mM) 119 NaCl, 4.7 KCI, 1.17 MgSO4, 22.5 NaHCO3, 1.18 KH2PO4, 3.2 CaCl2, 5.5 glucose, and 4 g/100 ml BSA. PSS-BSA (100 ml) was perfused through the lungs in a nonrecirculating fashion to remove residual blood cells and plasma. The perfusate was then changed to a PSS-BSA perfusate that contained RBCs from individuals homozygous for sickle cell anemia (Hb SS). The perfusate hematocrit was ˜10%. Pulmonary arterial pressure (Ppa) and pulmonary venous (Ppv) were continuously monitored with Cope pressure transducers (model 041-500-503) and recorded on a Grass polygraph recorder (model 7E). Zone 3 flow conditions (arterial>venous>alveolar pressures) were maintained throughout all experiments.
Blood collection. During steady-state, blood samples (˜40 ml) were obtained from normal (Hemoglobin A) human volunteers and from individuals with homozygous sickle cell anemia in the sickle cell clinics at the University of South Alabama. Samples were collected in syringes containing heparin and utilized within 48 hours of collection. Individuals having received blood transfusions within 6 wks were excluded from this study. Sickle cell anemia was documented by hemoglobin electrophoresis in each subject.
RBC isolation and Cr^51 labeling. Each whole blood sample was centrifuged at 4100 rpm for 10 min followed by the removal of the plasma and buffy coat. Packed RBCs were then mixed at a 1:3 dilution with normal saline and washed ×3. With each wash, the RBC suspension was centrifuged for 10 min at 3000 rpm followed by removal of the supernatant. Following the third wash, packed RBCs were resuspended in PBS (1 ml PBS/1 ml packed RBCs) and incubated with 100 μCi Cr^51 for 60 min in a shaker water bath at 37° C. Following incubation, the Cr^51 labeled RBCs were washed ×1 with normal saline and resuspended in PSS-BSA to obtain a hematocrit of ˜10%.
Neutrophil (PMN) isolations. Heparinized whole blood (20 ml) from individuals with homozygous sickle cell anemia was diluted 1:1 with normal saline. Dextran 500 was added to the 1:1 mix at ¼ the volume of the 1:1 mix. This was allowed to incubate for 45 min at 37° C. The supernatant (contains PMNs) was aspirated into a 50 ml centrifuge tube and underlayered with 10 ml histopague 1077. This was centrifuged at 1250 rpm for 30 min. The supernatant is aspirated and discarded leaving the PMN pellet. Sterile H2O, 3 ml, is added to the PMN pellet and agitated for 3 sec to lyse any residual RBCs. Phosphate buffered saline, 45 ml, is added immediately thereafter to stop the reaction. This is centrifuged at 1250 rpm for 10 min. The supernatant is aspirated and discarded. This process of RBC lysis followed by PBS is repeated until the PMN pellet is without visual evidence of RBC contamination. The PMN pellet is suspended in 1 ml of sterile Hank's balanced salt solution. A total PMN count is obtained using the Cell-DYN 900 Coulter Counter. PMN viability is 95–99% as assessed using trypan blue.
RBC Retention. […]

K562 cells = test: K562 cell viability by trypan blue exclusion; format: cell-based, human; details: 75 μM and 100 μM
Method: Cell Culture. K562 cells were grown in suspension cultures in RPMI-1640 containing 10% fetal bovine serum, penicillin (100 U/ml) and streptomycin (0.1 mg/ml in a humidified incubator at 37° C. in a 5%CO2/95% air atmosphere. […] The K562 cells were induced for 72 hours then RNA isolated for further analysis. Cell viability was completed by 2% trypan blue exclusion at timnes 0 and 72 hours.

[2] = tested on: fetal hemoglobin production in primary erythroid progenitors from Hb SS patients; test: Hemoglobin F determination in erythroid progenitors, Hb SS patients; format: cell-based, human; details: for fold increase in hemoglobin F: 0 versus 100 μM, Hb SS patients; for HbF Difference: 0 vs 100 μM, sickle cell patients
Method: BFU-E Colony Growth. Mononuclear cells were isolated from the peripheral blood of each patient studied by density gradient centrifugation using Histapaque-1077 (Sigma). Erythroid progenitors were obtained in methylcellulose culture. ZL was added on day 0 at 25, 50, 75, or 100 μM concentrations for 13–14 days at which time the number of BFU-E colonies were counted on an inverted microscope and harvested for hemoglobin determinations.
Hemoglobin F determination. The erythroid progenitors were collected, washed in PBS then lysed at room temperature in 200 μl of water. The supernatant was split into two tubes, one for total hemoglobin determination and one for hemoglobin F determination. In brief, IgG (10 μl), 1.2 N NaOH (7 μl) and saturated (NH4)2SO4 (70 μl) were added to the hemoglobin F sample. The denatured hemoglobin was pelleted and the supernatant containing hemoglobin F was mixed with 500 μl of tetramethyl benzidine and 500 μl of H2O2 at room temperature then quantitated on a spectrophotometer at 600 nm. The percentage of fetal hemoglobin to total hemoglobin was determined.
The capability of ZL to induce hemoglobin F in primary erythroid progenitors, grown from peripheral blood mononuclear cells (MNC) was analyzed. BFU-E colonies were grown in methylcellulose cultures supplemented with erthyopoietin and interleukin-3 and ZL at concentration from 0 to 100 μM. Three patients homozygous for hemoglobin S (Hb SS) were analyzed with triplicate experiments. The average BFU-E colony number was 123.2±18.6 without ZL compared to 10.6±2.0 at 100 μM concentrations, p<0.05 (Table 1). […] All pair-wise comparisons for BFU-E and hemoglobin F between 0μ and other concentrations (25, 50, 75 and 100 μM) were significant at p<0.05. The correlation coefficient between the number of BFU-E colonies or percent hemoglobin F and different levels of ZL is −0.90 and +0.79, respectively (p<0.05). […] (See Yang et al., BFU-E colony growth in response to hydroxyurea: correlation between in vitro and in vivo fetal hemoglobin induction. Am J Hematol. 1997; 56:252–258). […] HU either was more efficient in inhibiting BFU-E colony growth or alternatively the baseline number of colonies on an average was higher for the Hb SS patients in the HU cohort.

| SMILES | decrease in SRBC retention/adherence ([1]; ZL 2.5 μM pretreated A-PMN vs SRBC+A-PMN control (ethanol diluent), 30 min perfusion) | decrease in K562 cell viability (K562 cells) | fold increase in hemoglobin F [2] | HbF Difference [2] | HbF ([2]; zileuton 25 μM, individual Hb SS patients (No. 1-3)) | HbF ([2]; zileuton 25 μM, mean ± SEM of three Hb SS patients) | HbF ([2]; zileuton 50 μM, individual Hb SS patients (No. 1-3)) | HbF ([2]; zileuton 50 μM, mean ± SEM of three Hb SS patients) | HbF ([2]; zileuton 75 μM, individual Hb SS patients (No. 1-3)) | HbF ([2]; zileuton 75 μM, mean ± SEM of three Hb SS patients) | HbF ([2]; zileuton 100 μM, individual Hb SS patients (No. 1-3)) | HbF ([2]; zileuton 100 μM, mean of three Hb SS patients) | HbF ([2]; zileuton 100 μM, mean of three Hb SS patients, listed as zileuton) | SRBC retention/adherence ([1]; HU 50 μM pretreated A-PMN) | SRBC retention/adherence ([1]; HU 100 μM pretreated A-PMN) | SRBC retention/adherence ([1]; HU 1000 μM pretreated A-PMN) | decrease in retained SRBCs ([1]; HU 1000 μM pretreated PMNs vs control (H2O diluent)) | attenuation of activated-PMN mediated enhanced SRBC retention/adherence ([1]; HU 50 and 100 μM) |
| --- | --- | --- | --- | --- | --- | --- | --- | --- | --- | --- | --- | --- | --- | --- | --- | --- | --- | --- |
| CC(c1cc2ccccc2s1)N(O)C(N)=O (racemic) [ZL, (±)-1-(1-Benzo[b]thien-2-ylethyl)-1-hydroxyurea] | ~42% | 10% | 4.8 fold | 12.6 ± 1.1% | 3% and 4% and 11% | 6.2 ± 1.4% | 6% and 7% and 14% | 11.9 ± 1.3% | 11% (2×) and 18% | 13.2 ± 1.4% | 13% and 14% and 21% | 15.9±1.4% and 15.9% | 15.9 ± 1.4% | – | – | – | – | – |
| NC(=O)NO [HU, Hydroxyurea] | – | 10% | 3.8 fold | 14.4 ± 1.5% | – | – | – | – | – | – | – | – | – | 4.2±0.4 ×10^8 SRBC/gram of lung | 4.3±0.4 ×10^8 SRBC/gram of lung | 3.9±0.2 ×10^8 SRBC/gram of lung | ~25% | did not attenuate |
